Converted amounts (≈) assume the structure as drawn.
Key:
[1] = Hydrolysis kinetics in buffers at room temperature by 19F-NMR, 1 mg/ml (Method 9); type: physicochemical
Protocol: Method 9: Hydrolysis Kinetics in Buffers at Room Temperature by ^19F-NMR, 1 mg/ml (Table 9)
Samples were prepared by solubilizing the ester compound (1 mg) in 900 μL of D2O and 100 μL of adequate buffer (Citrate 100 mM pH 5, Phosphate 100 mM pH 6 and Phosphate 100 mM pH 7.4). After a short sonication to fasten solubilization, the hydrolysis curve of the esters was generated by measuring and comparing the ^19F-NMR signal integrations of both species (ester compound disappearing and the acid form AF1 appearing). T10 and T50, times for respectively 10% and 50% of ester hydrolysis, were determined by interpolation of the hydrolysis curves.

[2] = Aqueous solubility by visual inspection (Method 12); details: for solubility: water, thermodynamic from solid
[3] = Hydrolysis kinetics in buffers at 37° C., 4 μg/ml (LC-MS, Method 8); type: physicochemical
Protocol: (§1) Method 8: Hydrolysis Kinetics in Buffers or Plasma Samples at 37° C., 4 μg/ml (Table 9)
(§2) Test compounds were prepared in DMSO at 0.8 mg/ml (relative to the acid AF1). To obtain a concentration of 4 μg/ml, one microliter of test compounds or AF1 was dissolved in 199 μl of buffer or blank plasma. For test compounds, plasma samples and/or buffer samples were kept at 37° C. during 2 h, and 20 μL of mixture were collected at 0 minutes (before heating to 37° C.), 5 minutes, 10 minutes, 20 minutes, 30 minutes, 45 minutes, 60 minutes and 120 minutes. For AF1, 20 μl of plasma samples and/or buffer samples were collected at 0 minutes. All plasma samples were protein precipitated using 3-25 fold volume of acetonitrile, shaken and centrifuged for 20 minutes at 15 000×g, diluted with a varying volume of deionized water. All buffer samples were diluted with a varying volume of deionized water/acetonitrile. The formation of AF1 from test compounds was quantified using LC-MS/MS.

in vitro = in vitro ADME; details: plasma
Protocol: as §1, §2

SMILES | Hydrolysis at 1 mg/ml at room Temperature (NMR) T10 (10% degradation time) ([1]; Citrate 10 mM pH 5.0) [min] | Hydrolysis at 1 mg/ml at room Temperature (NMR) T50 (50% degradation time) ([1]; Citrate 10 mM pH 5.0) [h] | Hydrolysis at 1 mg/ml at room Temperature (NMR) T10 (10% degradation time) ([1]; Phosphate 10 mM pH 6.0) [min] | Hydrolysis at 1 mg/ml at room Temperature (NMR) T50 (50% degradation time) ([1]; Phosphate 10 mM pH 6.0) [h] | Hydrolysis at 1 mg/ml at room Temperature (NMR) T10 (10% degradation time) ([1]; Phosphate 10 mM pH 7.4) [min] | Hydrolysis at 1 mg/ml at room Temperature (NMR) T50 (50% degradation time) ([1]; Phosphate 10 mM pH 7.4) [h] | solubility [2] [µg/mL] | Hydrolysis at 4 μg/ml at 37° C. (LC-MS) T50 (50% degradation time) ([3]; Citrate 10 mM pH 5.0) [min] | Hydrolysis at 4 μg/ml at 37° C. (LC-MS) T50 (50% degradation time) ([3]; Phosphate 10 mM pH 6.0) [min] | Hydrolysis at 4 μg/ml at 37° C. (LC-MS) T50 (50% degradation time) ([3]; Phosphate 10 mM pH 7.4) [min] | Aqueous Solubility at room temperature in H2O ([2]; room temperature, H2O, visual inspection) | half-life at 4 µg/ml (in vitro; dog) [min] | half-life at 4 µg/ml (in vitro; human) [min] | half-life at 4 µg/ml (in vitro; mouse) [min] | half-life at 4 µg/ml (in vitro; rat) [min]
COCC(C)(COC)OC(=O)C(F)(F)ON1C(=O)N2C[C@H]1CC[C@H]2C(N)=O [Example 10, [2-methoxy-1-(methoxymethyl)-1-methyl-ethyl]2-[[(2S,5R)-2-carbamoyl-7-oxo-1,6-diazabicyclo[3.2.1]octan-6-yl]oxy]-2,2-difluoro-acetate] | 210 | 32 | 90 | 16 | 12 | 1 | 4500 (≈ 11.4 mM) | – | – | – | – | – | – | – | –
COCCCC(C)(C)OC(=O)C(F)(F)ON1C(=O)N2C[C@H]1CC[C@H]2C(N)=O [Example 14, (4-methoxy-1,1-dimethyl-butyl) 2-[[(2S,5R)-2-carbamoyl-7-oxo-1,6-diazabicyclo[3.2.1]octan-6-yl]oxy]-2,2-difluoro-acetate] | 5 | 0.45 | <25 | <2 | 7 | 0.567 | 5100 (≈ 13 mM) | <5 | <5 | <5 | – | – | – | – | –
NC(=O)[C@@H]1CC[C@@H]2CN1C(=O)N2OC(F)(F)C(=O)OC1C2CC3CC(C2)CC1C3 (stereo partly drawn) [Example 3, 2-adamantyl 2-[[(2S,5R)-2-carbamoyl-7-oxo-1,6-diazabicyclo[3.2.1]octan-6-yl]oxy]-2,2-difluoro-acetate] | – | – | – | – | – | – | – | – | – | – | Low solubility | – | – | – | –
COCCOCC(C)(C)OC(=O)C(F)(F)ON1C(=O)N2C[C@H]1CC[C@H]2C(N)=O [Example 9] | 192 | 20 | 138 | 17 | 21 | 2.6 | 6900 (≈ 16.9 mM) | – | – | – | – | – | – | – | –
COCC1(OC(=O)C(F)(F)ON2C(=O)N3C[C@H]2CC[C@H]3C(N)=O)CCOCC1 [Example 11, [4-(methoxymethyl)tetrahydropyran-4-yl]2-[[(2S,5R)-2-carbamoyl-7-oxo-1,6-diazabicyclo[3.2.1]octan-6-yl]oxy]-2,2-difluoro-acetate] | 372 | >41 | 120 | 16 | 15 | 1.3 | 1300 (≈ 3.19 mM) | – | – | – | – | – | – | – | –
NC(=O)[C@@H]1CC[C@@H]2CN1C(=O)N2OC(F)(F)C(=O)OC1CCOCC1 [Example 12, tetrahydropyran-4-yl 2-[[(2S,5R)-2-carbamoyl-7-oxo-1,6-diazabicyclo[3.2.1]octan-6-yl]oxy]-2,2-difluoro-acetate] | 15 | 1.3 | – | – | – | – | 500 to 1000 (≈ 1.38 to 2.75 mM) | <1 | <1 | <1 | – | – | – | – | –
CCCN(CCC)[C@H]1CC[C@H](OC(=O)C(F)(F)ON2C(=O)N3C[C@H]2CC[C@H]3C(N)=O)CC1 [Example 15, [4-(dipropylamino)cyclohexyl]2-[[(2S,5R)-2-carbamoyl-7-oxo-1,6-diazabicyclo[3.2.1]octan-6-yl]oxy]-2,2-difluoro-acetate] | 7 | 0.567 | – | – | – | – | > 1000 | <1 | <1 | <1 | – | – | – | – | –
CC1(OC(=O)C(F)(F)ON2C(=O)N3C[C@H]2CC[C@H]3C(N)=O)CCOCC1 [Example 8, (4-methyltetrahydropyran-4-yl) 2-[[(2S,5R)-2-carbamoyl-7-oxo-1,6-diazabicyclo[3.2.1]octan-6-yl]oxy]-2,2-difluoro-acetate] | 402 | 43 | 162 | 21 | 40 | 4.5 | 1000 (≈ 2.65 mM) | >120 | – | 39 | – | 8 | 11 | < 1 | < 1
COCC(COC)OC(=O)C(F)(F)ON1C(=O)N2C[C@H]1CC[C@H]2C(N)=O [Example 13, [2-methoxy-1-(methoxymethyl)ethyl]2-[[(2S,5R)-2-carbamoyl-7-oxo-1,6-diazabicyclo[3.2.1]octan-6-yl]oxy]-2,2-difluoro-acetate] | 8 | 0.933 | – | – | – | – | > 1000 | <1 | <1 | <1 | – | – | – | – | –
COCC(C)(C)OC(=O)C(F)(F)ON1C(=O)N2C[C@H]1CC[C@H]2C(N)=O [Example 7, (2-methoxy-1,1-dimethyl-ethyl) 2-[[(2S,5R)-2-carbamoyl-7-oxo-1,6-diazabicyclo[3.2.1]octan-6-yl]oxy]-2,2-difluoro-acetate] | 210 | 27 | 120 | 20 | 37 | 3.2 | 6000 (≈ 16.4 mM) | 109 | – | 23 | – | 4 | 7 | < 1 | < 1
CCOC(=O)C(F)(F)ON1C(=O)N2C[C@H]1CC[C@H]2C(N)=O [AF1-Et] | 9 | 1 | – | – | – | – | > 1000 | <1 | <1 | <1 | – | – | – | – | –

From US20200017496A1 (priority 2017, published 2020)
